Data: patent publication US11236086B2, “Substituted pyrrolopyridines as inhibitors of activin receptor-like kinase” (BLUEPRINT MEDICINES CORPORATION, priority 2017, dated 2022)

The molecules below were run against T1, ALK2R206H (mutant ALK2, N-terminally tagged with GST) (Homo sapiens, UniProt Q04771, R206H) (assay: ALK binding assay (LANTHASCREEN TR-FRET competitive binding, displacement of Kinase Tracer 178)). Conditions: read-out: Binding Assay (IC50 class).
T1 construct: purchased Carna Bioscience or ThermoFisher 09-148 or PV6232
T1 sequence (Q04771 21-509 R206H): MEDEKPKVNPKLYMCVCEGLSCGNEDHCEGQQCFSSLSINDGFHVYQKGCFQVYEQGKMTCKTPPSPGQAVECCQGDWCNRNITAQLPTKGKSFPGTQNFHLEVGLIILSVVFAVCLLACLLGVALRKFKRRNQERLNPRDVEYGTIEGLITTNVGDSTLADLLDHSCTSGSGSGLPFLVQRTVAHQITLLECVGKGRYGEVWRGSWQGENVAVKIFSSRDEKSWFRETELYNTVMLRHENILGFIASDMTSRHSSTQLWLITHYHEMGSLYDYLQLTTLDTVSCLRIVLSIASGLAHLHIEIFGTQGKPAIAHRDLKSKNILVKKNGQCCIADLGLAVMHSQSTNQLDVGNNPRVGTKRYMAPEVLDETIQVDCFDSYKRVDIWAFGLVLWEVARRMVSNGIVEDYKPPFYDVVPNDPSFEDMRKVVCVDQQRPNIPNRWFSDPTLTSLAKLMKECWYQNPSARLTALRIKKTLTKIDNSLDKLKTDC
Experimental: Example 10 ALK Binding Assays
Binding assays were conducted using the LANTHASCREEN® technology (ThermoFisher Scientific). LANTHASCREEN® is a competitive binding, displacement assay where the assumed steady state occupancy of the binding site is measured using a time-resolved, fluorescence energy transfer (TR-FRET) readout between a fluorescent tracer and Europium (Eu)-tagged antibody specific for the kinase or expression tag (e.g., GST) of interest. Displacement of the tracer by a compound of the disclosure reduces, and is directly proportional to, the TR-FRET between the tracer and the antibody. Tracer was used at a concentration equal to or near to its Kd for the kinase. The Eu-tagged antibody was typically used in excess to ensure sampling of all competent protein capable of binding the tracer.
For these assays, a mutant ALK2 was used that was N-terminally tagged with GST (ALK2R206H Carna Bioscience (09-148) or ALK2R206H ThermoFisher (PV6232)); a Eu-tagged anti-GST antibody (ThermoFisher) and Kinase Tracer 178 (ThermoFisher).
In all cases, the kinase (2-5 nM) was mixed with Eu-tagged antibody (4-10 nM) mix and tracer (50 nM) were incubated with test compound titrations prepared in 100% DMSO (1% DMSO final) for 30 minutes at room temperature. All reagents and compounds were dissolved in Kinase Buffer A (ThermoFisher) to achieve the final concentration. The plates were read on a PerkinElmer EnVision® multilabel plate reader or a BioTek Synergy Neo plate reader, and the assay signal was represented as a ratio of the TR-FRET emission (λex 330 nm, λ^em […] and λ^em 665 nm). This readout was normalized to 0% and 100% inhibited control wells, plotted against inhibitor concentration, and fitted to a 4-parameter log dose response curve.
The results of this assay are shown in Table 3 in the column labelled “Binding Assay” wherein “A” represents an IC50 of less than or equal to 10 nM; “B” represents an IC50 of greater than 10 nM and less than or equal to 50 nM; and “C” represents an IC50 of greater than 50 nM. Blank values in the table indicate that the particular compound was not tested in this assay.

`Cn1cc(-c2cc3c(N4CCN(C(=O)[C@@H]5CCCO5)CC4)ccnc3[nH]2)cn1` [Compound 81] and `Cn1cc(-c2cc3c(N4CCN(C(=O)C5CCC5)CC4)ccnc3[nH]2)cn1` [Compound 20] cannot be ordered by IC50: 10 to 50 nM for the first, no more than 10 nM for the second.

`CCOC(=O)N1CCN(c2ccnc3[nH]c(-c4ccc(C5(OC)CCOCC5)cn4)cc23)CC1` [Compound 430] and `COC1(c2ccc(-c3cc4c(N5CCN(C(=O)OC6COC6)CC5)ccnc4[nH]3)nc2)CCOCC1` [Compound 457] cannot be ordered by IC50: no more than 10 nM for the first, no more than 10 nM for the second.

`Cn1cc(-c2cc3c(N4CCN(C(=O)OCCC(C)(C)C)CC4)ccnc3[nH]2)cn1` [Compound 240] and `Cn1cc(-c2cc3c(N4CCN(C(=O)OCCC5CC5)CC4)ccnc3[nH]2)cn1` [Compound 141] cannot be ordered by IC50: 10 to 50 nM for the first, no more than 10 nM for the second.

`CCOC(=O)N1CCN(c2ccnc3[nH]c(-c4cc(C)ns4)cc23)CC1` [Compound 47] and `CCOC(=O)N1CCN(c2ccnc3[nH]c(-c4cc(C)ccn4)cc23)CC1` [Compound 25] cannot be ordered by IC50: no more than 10 nM for the first, no more than 10 nM for the second.

First: O=C(C1CC1)N1CCN(c2ccnc3[nH]c(-c4ccc(C5CCCCC5)cc4)cc23)CC1 [Compound 319]
Second: O=C(C1CC1)N1CCN(c2ccnc3[nH]c(-c4ccc(C5CC5)cc4)cc23)CC1 [Compound 119]
The IC50 of the first is lower: 10 to 50 nM for the first, greater than 50 nM for the second.

`O=C(C1CC1)N1CCN(c2ccnc3[nH]c(-c4ccc(C(F)(F)F)cc4)cc23)CC1` [Compound 253] and `CCC(=O)c1ccc(-c2cc3c(N4CCN(C(=O)C5CC5)CC4)ccnc3[nH]2)cc1` [Compound 184] cannot be ordered by IC50: 10 to 50 nM for the first, no more than 10 nM for the second.

`COc1ccc(-c2cc3c(N4CCN(C(=O)C5CC5)CC4)ccnc3[nH]2)c(F)c1` [Compound 138] and `O=C(C1CC1)N1CCN(c2ccnc3[nH]c(-c4ccc(F)cc4F)cc23)CC1` [Compound 87] cannot be ordered by IC50: no more than 10 nM for the first, 10 to 50 nM for the second.

First: Cc1ccccc1-c1cc2c(N3CCN(C(=O)C4CC4)CC3)ccnc2[nH]1 [Compound 14]
Second: O=C(C1CC1)N1CCN(c2ccnc3[nH]c(-c4ccccc4F)cc23)CC1 [Compound 18]
The IC50 of the first is higher: greater than 50 nM for the first, 10 to 50 nM for the second.

`Cn1cc(-c2cc3c(N4CCN(C(=O)[C@H]5CCOC5)CC4)ccnc3[nH]2)cn1` [Compound 78] and `Cn1cc(-c2cc3c(N4CCN(C(=O)OCC5CCCCO5)CC4)ccnc3[nH]2)cn1` (stereo not drawn) [Compound 306] cannot be ordered by IC50: no more than 10 nM for the first, no more than 10 nM for the second.

`CCOC(=O)N1CCN(c2ccnc3[nH]c(-c4nn(C)cc4C#N)cc23)CC1` [Compound 72] and `CCOC(=O)N1CCN(c2ccnc3[nH]c(-c4nn(C)cc4C)cc23)CC1` [Compound 42] fall in the same range of IC50: 10 to 50 nM for the first, 10 to 50 nM for the second.

`CC(C)(O)Cn1cc(-c2cc3c(N4CCN(C(=O)C5CC5)CC4)ccnc3[nH]2)cn1` [Compound 222] and `Cc1cccc(-c2cc3c(N4CCN(C(=O)C5CC5)CC4)ccnc3[nH]2)c1` [Compound 15] cannot be ordered by IC50: no more than 10 nM for the first, 10 to 50 nM for the second.

`Cc1ncc(-c2[nH]c3nccc(N4CCN(C(=O)OC5COC5)CC4)c3c2C#N)o1` [Compound 217] and `Cn1cc(-c2[nH]c3nccc(N4CCN(C(=O)OC5COC5)CC4)c3c2C2CC2)cn1` [Compound 293] cannot be ordered by IC50: no more than 10 nM for the first, no more than 10 nM for the second.

`Cn1cc(-c2cc3c(N4CCN(C(=O)CCC5CCCC5)CC4)ccnc3[nH]2)cn1` [Compound 206] and `Cn1cc(-c2cc3c(N4CCN(C(=O)CC#N)CC4)ccnc3[nH]2)cn1` [Compound 5] fall in the same range of IC50: 10 to 50 nM for the first, 10 to 50 nM for the second.

First: COc1ccccc1-c1cc2c(N3CCN(C(=O)C4CC4)CC3)ccnc2[nH]1 [Compound 58]
Second: N#Cc1cccc(-c2cc3c(N4CCN(C(=O)C5CC5)CC4)ccnc3[nH]2)c1 [Compound 44]
The IC50 of the first is higher: greater than 50 nM for the first, 10 to 50 nM for the second.

`Cc1nc(-c2cc3c(N4CCN(C(=O)OC5COC5)CC4)ccnc3[nH]2)oc1C` [Compound 158] and `Cc1coc(-c2cc3c(N4CCN(C(=O)OC5COC5)CC4)ccnc3[nH]2)n1` [Compound 107] cannot be ordered by IC50: no more than 10 nM for the first, 10 to 50 nM for the second.

`O=C(OC1COC1)N1CCN(c2ccnc3[nH]c(-c4ncc(C(F)(F)F)s4)cc23)CC1` [Compound 409] and `Cc1ccc(-c2cc3c(N4CCN(C(=O)OC5COC5)CC4)ccnc3[nH]2)s1` [Compound 168] cannot be ordered by IC50: no more than 10 nM for the first, no more than 10 nM for the second.

`CCCOc1ccc(-c2cc3c(N4CCN(C(=O)C5CC5)CC4)ccnc3[nH]2)cc1` [Compound 196] and `O=C(C1CC1)N1CCN(c2ccnc3[nH]c(-c4ccc(OCc5ccccc5)cc4)cc23)CC1` [Compound 406] fall in the same range of IC50: 10 to 50 nM for the first, 10 to 50 nM for the second.

`CCS(=O)(=O)CCOC(=O)N1CCN(c2ccnc3[nH]c(-c4cnn(C)c4)cc23)CC1` [Compound 384] and `CCOCCOC(=O)N1CCN(c2ccnc3[nH]c(-c4cnn(C)c4)cc23)CC1` [Compound 164] cannot be ordered by IC50: 10 to 50 nM for the first, no more than 10 nM for the second.

`Cc1nc(-c2cc3c(N4CCN(C(=O)OC5CSC5)CC4)ccnc3[nH]2)cs1` [Compound 261] and `Cc1nsc(-c2cc3c(N4CCN(C(=O)OC5COC5)CC4)ccnc3[nH]2)n1` [Compound 182] cannot be ordered by IC50: no more than 10 nM for the first, 10 to 50 nM for the second.

`CCC(C)CC(=O)N1CCN(c2ccnc3[nH]c(-c4cnn(C)c4)cc23)CC1` (stereo not drawn) [Compound 83] and `CC(C)C(=O)N1CCN(c2ccnc3[nH]c(-c4cnn(C)c4)cc23)CC1` [Compound 10] fall in the same range of IC50: 10 to 50 nM for the first, 10 to 50 nM for the second.

`CCOC(=O)N1CCN(c2ccnc3[nH]c(-c4cnn(C)c4COC)cc23)CC1` [Compound 166] and `CCc1c(-c2cc3c(N4CCN(C(=O)OC5COC5)CC4)ccnc3[nH]2)cnn1C` [Compound 235] cannot be ordered by IC50: 10 to 50 nM for the first, no more than 10 nM for the second.

`CC(=O)Nc1ccc(-c2cc3c(N4CCN(C(=O)OC5COC5)CC4)ccnc3[nH]2)nc1` [Compound 353] and `Cc1c(-c2cc3c(N4CCN(C(=O)OC5COC5)CC4)ccnc3[nH]2)cnn1C` [Compound 156] cannot be ordered by IC50: 10 to 50 nM for the first, no more than 10 nM for the second.

`COCCCOC(=O)N1CCN(c2ccnc3[nH]c(-c4cnn(C)c4)cc23)CC1` [Compound 163] and `CCOCC(C)OC(=O)N1CCN(c2ccnc3[nH]c(-c4cnn(C)c4)cc23)CC1` (stereo not drawn) [Compound 246] cannot be ordered by IC50: no more than 10 nM for the first, no more than 10 nM for the second.

`Cn1cc(-c2cc3c(N4CCN(C(=O)OC5COC5)CC4)ccnc3[nH]2)c(C#N)n1` [Compound 209] and `Cn1cnc(-c2cc3c(N4CCN(C(=O)OC5COC5)CC4)ccnc3[nH]2)n1` [Compound 106] cannot be ordered by IC50: no more than 10 nM for the first, 10 to 50 nM for the second.

`CCC(=O)c1c(-c2cn(C)c(C)n2)[nH]c2nccc(N3CCN(C(=O)OC4COC4)CC3)c12` [Compound 404] and `Cc1nc(-c2[nH]c3nccc(N4CCN(C(=O)OC5COC5)CC4)c3c2C)sc1C` [Compound 318] cannot be ordered by IC50: 10 to 50 nM for the first, no more than 10 nM for the second.

`COc1cnc(-c2cc3c(N4CCN(C(=O)OC5COC5)CC4)ccnc3[nH]2)c(C#N)c1` [Compound 346] and `CCOC(=O)N1CCN(c2ccnc3[nH]c(-c4scnc4C#N)cc23)CC1` [Compound 95] cannot be ordered by IC50: no more than 10 nM for the first, no more than 10 nM for the second.

`CCOC(=O)N1CCN(c2ccnc3[nH]c(-c4ccc(C)nc4)cc23)CC1` [Compound 27] and `CCOC(=O)N1CCN(c2ccnc3[nH]c(-c4cnn(C)c4)c(CC)c23)CC1` [Compound 99] cannot be ordered by IC50: no more than 10 nM for the first, no more than 10 nM for the second.

`Cn1cnc(-c2cc3c(N4CCN(C(=O)O[C@@H]5CC(F)(F)C5(F)F)CC4)ccnc3[nH]2)c1` [Compound 400] and `O=C(C1CC1)N1CCN(c2ccnc3[nH]c(-c4cc(F)cc(F)c4)cc23)CC1` [Compound 88] cannot be ordered by IC50: no more than 10 nM for the first, no more than 10 nM for the second.

With `CCN1CCN(c2ccc(-c3cc4c(N5CCN(C(=O)C6CC6)CC5)ccnc4[nH]3)c(OC)c2)CC1` [Compound 454] the IC50 was 10 to 50 nM.
